Tests used:
Streptococcus salivarius = experiment: Short-term colonic incubation, population of Streptococcus salivarius (16S Illumina sequencing with flow cytometry); type: cell-based
Description: (§1) The aim of this project was to evaluate the properties of a synbiotic combination of Bifidobacterium longum subsp. longum ATCC BAA-999 and LNT using short-term colonic incubations (48 h), in which the proximal colon environment of a baby was simulated. The evaluation was based on the effects on microbial metabolic activity (SCFA, lactate and ammonium production) and community composition (16Stargeted Illumina sequencing), through comparison with a blank (no treatment), a probiotic (containing only the B. longum subsp. longum strain) and a prebiotic (containing only LNT).
(§2) In these experiments, a simplified simulation of the continuous Simulator of the Human Microbial Ecosystem (SHIME®) was used. […]
(§3) To account for biological variability, all tests were performed in triplicate, resulting in 12 independent incubations. […] Ammonium concentrations were measured at the start and after 48 h of incubation. The effect on the gut microbial community was assessed through Illumina sequencing at the start of the incubation and after 6 h, and 48 h. […]

B. longum subsp. longum = experiment: Short-term colonic incubation, population of B. longum subsp. longum (16S Illumina sequencing with flow cytometry); type: cell-based, Bifidobacterium longum subsp. longum; settings: after 6 and 48 hours of incubation; synbiotic compared to the probiotic alone
Description: as §1, §2, §3

SMILES: CC(=O)N[C@H]1[C@H](O[C@H]2[C@@H](O)[C@@H](CO)O[C@@H](O[C@H]3[C@H](O)[C@@H](O)C(O)O[C@@H]3CO)[C@@H]2O)O[C@H](CO)[C@@H](O)[C@@H]1O[C@@H]1O[C@H](CO)[C@H](O)[C@H](O)[C@H]1O (stereo partly drawn) [prebiotic, Lacto-N-tetraose]
- population of S. salivarius at 48 hours compared to the population at 6 hours (in words) (Streptococcus salivarius; 48 hours vs 6 hours): strongly decreases
- boost of the population of Streptococcus salivarius (in words) (Streptococcus salivarius; after 6 and 48 hours of incubation): neither the probiotic alone, nor the prebiotic alone were able to boost
- population of B. longum subsp. longum (in words) (B. longum subsp. longum): no effect
